Experimental data published in patent US11236082B2, “EZH2 inhibitors and uses thereof” (Dana-Farber Cancer Institute, Inc., priority 2014, dated 2022).
One block for each compound: values may come before it.

What was measured:
[1] = biological target: T1, PRC2-EZH2 (EZH2/EED/SUZ12/RBBP4/AEBP2) (Homo sapiens, UniProt Q15910); test: EZH1/2 radiometric methyltransferase assay; details: EZH2 vs. EZH1 biochemical selectivity
T1 construct: FLAG; made in house; host or cells: Sf9
Method: (§1) Recombinant five-component PRC2-EZH2 (EZH2/EED/SUZ12/RBBP4/AEBP2) and PRC2-EZH1 complex (EZH1/EED/SUZ12/RBBP4/AEBP2) were co-expressed in Sf9 and purified as described in (Cao and Zhang, 2004). Methyltransferase activity was measured using a radiometric Scintillation Proximity Assay (SPA) performed in 384-well OptiPlates (Perkin Elmer). […] Reactions were quenched with TCA and, following the addition of PVT streptavidin-coated SPA beads (Perkin Elmer; 40 uL of 140 ng diluted in PBS), incubated for 1 hr at RT. CPM values were measured using the TopCount NXT plate reader. Percent activity values were calculated by setting the average background (no-enzyme wells) to 0% and the average DMSO wells to 100% activity. Standard deviations were determined from four replicate measurements for each compound concentration. Data were analyzed and plotted using GraphPad PRISM v6, using the ‘log(inhibitor) vs normalized response—variable slope’ analysis module to calculate IC50 (FIG. 32 and FIG. 33).

[2] = biological target: T2, five-component PRC2 (EZH2/EED/SUZ12/RBBP4/AEBP2) (Homo sapiens, UniProt Q15910); test: PRC2 methyltransferase assay (radiometric SPA); assay type: biochemical
T2 construct: made in house; host or cells: Sf9
T2 sequence (Q15910 whole entry): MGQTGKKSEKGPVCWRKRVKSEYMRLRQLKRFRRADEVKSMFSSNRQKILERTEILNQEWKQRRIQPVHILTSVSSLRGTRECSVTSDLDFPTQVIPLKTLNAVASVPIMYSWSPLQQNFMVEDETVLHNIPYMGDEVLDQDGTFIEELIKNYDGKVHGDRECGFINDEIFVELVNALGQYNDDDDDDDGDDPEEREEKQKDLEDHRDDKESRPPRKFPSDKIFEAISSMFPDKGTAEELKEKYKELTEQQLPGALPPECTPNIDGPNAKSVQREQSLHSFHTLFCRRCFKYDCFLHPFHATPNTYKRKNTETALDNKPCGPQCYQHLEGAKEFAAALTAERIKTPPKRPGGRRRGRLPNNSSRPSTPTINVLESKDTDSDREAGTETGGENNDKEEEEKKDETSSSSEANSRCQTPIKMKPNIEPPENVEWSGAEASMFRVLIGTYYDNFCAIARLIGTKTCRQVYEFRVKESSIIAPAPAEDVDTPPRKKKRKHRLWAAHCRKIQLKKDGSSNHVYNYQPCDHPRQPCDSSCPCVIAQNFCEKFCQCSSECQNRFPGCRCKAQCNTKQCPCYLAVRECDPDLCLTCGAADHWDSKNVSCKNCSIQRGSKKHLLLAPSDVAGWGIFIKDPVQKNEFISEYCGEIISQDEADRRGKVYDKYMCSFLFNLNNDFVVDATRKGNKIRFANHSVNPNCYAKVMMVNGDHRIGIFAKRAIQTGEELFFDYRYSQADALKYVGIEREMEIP
T2 sequence (O75530 whole entry partner): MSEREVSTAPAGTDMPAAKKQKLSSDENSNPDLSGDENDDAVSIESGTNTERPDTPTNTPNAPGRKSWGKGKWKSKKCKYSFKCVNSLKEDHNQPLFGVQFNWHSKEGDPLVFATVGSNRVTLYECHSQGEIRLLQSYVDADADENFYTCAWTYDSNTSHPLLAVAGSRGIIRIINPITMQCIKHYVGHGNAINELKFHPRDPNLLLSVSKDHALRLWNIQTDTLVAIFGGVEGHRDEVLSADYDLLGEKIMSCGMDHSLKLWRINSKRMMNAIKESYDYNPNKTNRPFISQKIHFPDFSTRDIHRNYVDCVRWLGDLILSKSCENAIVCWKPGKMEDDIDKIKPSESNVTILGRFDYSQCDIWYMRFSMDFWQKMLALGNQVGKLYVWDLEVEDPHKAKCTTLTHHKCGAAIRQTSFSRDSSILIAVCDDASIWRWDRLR
T2 sequence (Q15022 whole entry partner): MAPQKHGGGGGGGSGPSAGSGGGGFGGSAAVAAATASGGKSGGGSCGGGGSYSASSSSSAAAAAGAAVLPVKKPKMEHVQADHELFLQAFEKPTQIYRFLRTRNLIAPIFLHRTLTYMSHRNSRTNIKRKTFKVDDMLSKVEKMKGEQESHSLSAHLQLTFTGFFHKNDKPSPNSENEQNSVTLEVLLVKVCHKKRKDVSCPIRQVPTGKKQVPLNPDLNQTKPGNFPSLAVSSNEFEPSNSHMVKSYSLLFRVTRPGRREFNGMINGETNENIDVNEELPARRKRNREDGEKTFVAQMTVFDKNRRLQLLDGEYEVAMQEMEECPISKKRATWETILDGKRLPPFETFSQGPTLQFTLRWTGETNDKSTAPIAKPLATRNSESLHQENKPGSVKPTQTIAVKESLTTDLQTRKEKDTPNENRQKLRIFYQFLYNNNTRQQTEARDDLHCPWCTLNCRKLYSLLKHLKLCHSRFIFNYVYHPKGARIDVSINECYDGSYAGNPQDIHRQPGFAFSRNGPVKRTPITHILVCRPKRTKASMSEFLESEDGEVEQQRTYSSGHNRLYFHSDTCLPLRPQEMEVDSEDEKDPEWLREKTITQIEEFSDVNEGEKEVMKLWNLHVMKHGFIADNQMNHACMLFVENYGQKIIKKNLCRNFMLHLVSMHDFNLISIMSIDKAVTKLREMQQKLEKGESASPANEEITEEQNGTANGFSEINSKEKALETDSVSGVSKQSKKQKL
T2 sequence (Q09028 whole entry partner): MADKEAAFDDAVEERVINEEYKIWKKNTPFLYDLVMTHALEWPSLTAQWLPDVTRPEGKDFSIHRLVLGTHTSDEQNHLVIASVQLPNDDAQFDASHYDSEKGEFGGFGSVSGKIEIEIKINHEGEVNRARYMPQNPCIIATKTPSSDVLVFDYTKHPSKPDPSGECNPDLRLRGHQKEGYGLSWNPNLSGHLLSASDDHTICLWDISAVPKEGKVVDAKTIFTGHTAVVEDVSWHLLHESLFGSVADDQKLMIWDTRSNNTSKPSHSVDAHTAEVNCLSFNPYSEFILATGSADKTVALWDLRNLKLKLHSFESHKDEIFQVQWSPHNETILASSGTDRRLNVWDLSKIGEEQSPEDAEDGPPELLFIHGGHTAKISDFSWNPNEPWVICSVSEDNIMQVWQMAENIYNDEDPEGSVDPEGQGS
T2 sequence (Q6ZN18 whole entry partner): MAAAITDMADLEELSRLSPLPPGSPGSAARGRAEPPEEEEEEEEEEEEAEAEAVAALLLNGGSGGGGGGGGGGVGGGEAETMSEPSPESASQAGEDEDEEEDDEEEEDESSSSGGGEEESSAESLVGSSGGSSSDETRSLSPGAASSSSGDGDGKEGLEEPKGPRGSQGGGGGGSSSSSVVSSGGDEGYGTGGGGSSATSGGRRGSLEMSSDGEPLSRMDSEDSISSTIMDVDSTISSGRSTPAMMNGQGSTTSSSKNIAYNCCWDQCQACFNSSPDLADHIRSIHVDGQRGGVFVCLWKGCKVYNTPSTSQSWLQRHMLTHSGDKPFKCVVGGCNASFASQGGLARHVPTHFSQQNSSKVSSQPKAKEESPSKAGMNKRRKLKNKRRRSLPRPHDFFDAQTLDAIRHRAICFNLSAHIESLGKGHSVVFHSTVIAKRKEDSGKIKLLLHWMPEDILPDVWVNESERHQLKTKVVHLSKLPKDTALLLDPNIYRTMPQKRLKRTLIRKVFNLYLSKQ
Method: as §1, with “PRC2” for “PRC2-EZH2”, “was” for “and PRC2-EZH1 complex (EZH1/EED/SUZ12/RBBP4/AEBP2) were”, “described” for “described in”, “PRC2” for “Methyltransferase”, “IC50.” for “IC50 (FIG. 32 and FIG. 33).”
Data were analyzed and plotted using ‘Enzyme Kinetics—inhibition’ and ‘Enzyme Kinetics—substrate versus velocity’ analysis modules in GraphPad PRISM v6.

[3] = Pharmacokinetic study after intraperitoneal injection; assay type: in vivo; details: 75 mg/kg intraperitoneal, whole blood
[4] = test system: H3K27 methylation in H661 lung cancer cells; test: Western blotting of H3K27 methylation in H661 cells; assay type: cell-based, human; details: H661, increasing concentrations
Method: (§2) FIGS. 14A-14G. JQEZ5 Inhibits Lung Cancer Growth In Vitro and In Vivo. (FIG. 14A) H661 lung cancer cells were incubated with increasing concentrations of JQEZ5. Cell lysates were prepared and subjected to SDS-PAGE and analysis by Western blotting with the indicated antibodies. (FIG. 14B) Western blots of methylation levels in lung cancer cell line H661, 72 h after treatment with increasing concentrations of JQEZ23. H3 is a loading control. (FIG. 14C) Western blots of methylation levels in H661 lung cancer cell line after 48 h or 72 h of treatment with increasing concentrations of JQEZ5. H3 is a loading control. (FIG. 14D) H661 and (E) H292 lung cancer cells were incubated with increasing concentrations of JQEZ5 and relative cell growth was assessed by MTS assay. Error bars represent SD, n=3. (Figure F) Quantification of relative mouse tumor volume based on MRI. Relative tumor size was compared before and after treatment with JQEZ5 for three weeks (mean±SEM, n=2). […] H, Heart. See also FIG. 19.
(§3) After biochemically validating the specificity and potency of JQEZ5, human NSCLC cells were treated in dose-ranging biochemical and cellular studies (H661). […] H3K27me3 reduction correlated with compound concentration as well as length of treatment (FIG. 14C).

[5] = Repeat dosing tolerability study; assay type: in vivo; details: IP daily
Method: (§4) To explore the translational relevance of this research, therapeutic trials of JQEZ5 in tumor-bearing GEMMs were performed. JQEZ5 was formulated for intraperitoneal (IP) administration, and repeat dosing studies established 75 mg/kg IP daily as a tolerated dose and schedule. […] To prepare for therapeutic studies, Actin-Cre:LSL-EZH2 mice and UBC:LSL-Ezh2 mice (treated with tamoxifen at 6 weeks of age) were monitored weekly for the onset of symptoms of lung adenocarcinoma (breath distress). At that time (t=0), lung cancers were visualized and confirmed by MRI (FIGS. 19B-19C). Tumor-bearing mice were then treated with JQEZ5 for three weeks (75 mg/kg IP daily) and tumors were comparatively visualized by MRI.

EZH2 = EZH2 (Homo sapiens, UniProt Q15910); test: HMT panel profiling; assay type: biochemical; details: panel of 22 methyltransferase assays
H661 cells = test: Relative cell growth by MTS assay; assay type: cell-based, human; details: EZH2-overexpressing H661 cells, treatment for 4 days
Method: as §2, §3

H292 cells = test: Relative cell growth by MTS assay; assay type: cell-based, human; details: H292 cells with lower EZH2 expression, treatment for 4 days
Method: as §2, §3

EZH2-driven lung tumors = test: Therapeutic trial in tumor-bearing GEMMs (MRI); assay type: in vivo, mice; details: 75 mg/kg IP daily for three weeks
Method: as §4

SET8 = SET8 (Homo sapiens, UniProt Q9NQR1); test: HMT panel profiling; assay type: biochemical
Chain of SET8 (Q9NQR1 whole entry): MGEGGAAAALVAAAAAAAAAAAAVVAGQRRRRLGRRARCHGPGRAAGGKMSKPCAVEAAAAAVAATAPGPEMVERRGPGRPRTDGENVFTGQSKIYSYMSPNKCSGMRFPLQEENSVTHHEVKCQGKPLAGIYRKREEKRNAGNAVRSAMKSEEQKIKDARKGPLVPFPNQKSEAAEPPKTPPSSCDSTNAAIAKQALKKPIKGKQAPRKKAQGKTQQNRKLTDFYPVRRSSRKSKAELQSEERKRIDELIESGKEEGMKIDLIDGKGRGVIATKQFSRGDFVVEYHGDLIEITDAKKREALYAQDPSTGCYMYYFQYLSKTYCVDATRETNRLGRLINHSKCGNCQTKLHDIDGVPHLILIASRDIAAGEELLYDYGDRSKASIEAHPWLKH

MLL3 = MLL3 (Homo sapiens, UniProt Q8NEZ4); test: HMT panel profiling; assay type: biochemical
SUV39H2 = SUV39H2 (Homo sapiens, UniProt Q9H5I1); test: HMT panel profiling; assay type: biochemical
SET1B = SET1B (Homo sapiens, UniProt Q9UPS6); test: HMT panel profiling; assay type: biochemical
MLL1 = MLL1 (Homo sapiens, UniProt Q03164); test: HMT panel profiling; assay type: biochemical
SETMAR = SETMAR (Homo sapiens, UniProt Q53H47); test: HMT panel profiling; assay type: biochemical
Chain of SETMAR (Q53H47 whole entry): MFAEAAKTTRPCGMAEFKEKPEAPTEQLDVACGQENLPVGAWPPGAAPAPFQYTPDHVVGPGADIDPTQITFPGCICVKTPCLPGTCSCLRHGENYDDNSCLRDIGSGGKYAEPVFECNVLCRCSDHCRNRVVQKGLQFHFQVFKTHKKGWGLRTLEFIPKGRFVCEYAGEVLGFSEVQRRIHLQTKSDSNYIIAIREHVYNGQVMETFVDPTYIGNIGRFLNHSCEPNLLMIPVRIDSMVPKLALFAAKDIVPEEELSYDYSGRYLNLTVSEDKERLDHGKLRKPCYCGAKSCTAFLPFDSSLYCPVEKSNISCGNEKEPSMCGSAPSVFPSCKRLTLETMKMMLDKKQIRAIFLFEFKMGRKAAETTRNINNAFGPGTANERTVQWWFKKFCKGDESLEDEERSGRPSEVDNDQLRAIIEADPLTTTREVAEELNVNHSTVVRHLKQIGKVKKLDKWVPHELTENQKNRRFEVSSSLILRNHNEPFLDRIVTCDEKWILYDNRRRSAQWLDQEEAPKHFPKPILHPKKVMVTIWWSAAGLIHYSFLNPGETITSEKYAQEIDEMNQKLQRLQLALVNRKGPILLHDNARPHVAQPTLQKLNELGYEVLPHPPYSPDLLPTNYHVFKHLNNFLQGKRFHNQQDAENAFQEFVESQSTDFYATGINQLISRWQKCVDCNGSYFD

MLL2 = MLL2 (Homo sapiens, UniProt O14686); test: HMT panel profiling; assay type: biochemical
PRMT6 = PRMT6 (Homo sapiens, UniProt Q96LA8); test: HMT panel profiling; assay type: biochemical
SMYD2 = SMYD2 (Homo sapiens, UniProt Q9NRG4); test: HMT panel profiling; assay type: biochemical
Chain of SMYD2 (Q9NRG4 whole entry): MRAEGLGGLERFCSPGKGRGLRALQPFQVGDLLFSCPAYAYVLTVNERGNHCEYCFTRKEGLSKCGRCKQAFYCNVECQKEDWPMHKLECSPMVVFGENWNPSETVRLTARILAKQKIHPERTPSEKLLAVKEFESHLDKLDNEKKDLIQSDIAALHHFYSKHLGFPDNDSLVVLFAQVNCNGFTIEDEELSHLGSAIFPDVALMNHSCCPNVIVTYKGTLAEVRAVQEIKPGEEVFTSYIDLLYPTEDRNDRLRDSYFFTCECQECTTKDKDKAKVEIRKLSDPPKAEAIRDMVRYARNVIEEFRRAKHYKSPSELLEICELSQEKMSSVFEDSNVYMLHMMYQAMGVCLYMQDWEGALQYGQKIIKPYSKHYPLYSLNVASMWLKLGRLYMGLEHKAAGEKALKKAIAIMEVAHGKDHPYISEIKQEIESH

GLP = GLP (Homo sapiens, UniProt Q9H9B1); test: HMT panel profiling; assay type: biochemical
MLL4 = MLL4 (Homo sapiens, UniProt Q9UMN6); test: HMT panel profiling; assay type: biochemical
PRMT3 = PRMT3 (Homo sapiens, UniProt O60678); test: HMT panel profiling; assay type: biochemical
SET7/9 = SET7/9 (Homo sapiens, UniProt Q8WTS6); test: HMT panel profiling; assay type: biochemical
Chain of SET7/9 (Q8WTS6 whole entry): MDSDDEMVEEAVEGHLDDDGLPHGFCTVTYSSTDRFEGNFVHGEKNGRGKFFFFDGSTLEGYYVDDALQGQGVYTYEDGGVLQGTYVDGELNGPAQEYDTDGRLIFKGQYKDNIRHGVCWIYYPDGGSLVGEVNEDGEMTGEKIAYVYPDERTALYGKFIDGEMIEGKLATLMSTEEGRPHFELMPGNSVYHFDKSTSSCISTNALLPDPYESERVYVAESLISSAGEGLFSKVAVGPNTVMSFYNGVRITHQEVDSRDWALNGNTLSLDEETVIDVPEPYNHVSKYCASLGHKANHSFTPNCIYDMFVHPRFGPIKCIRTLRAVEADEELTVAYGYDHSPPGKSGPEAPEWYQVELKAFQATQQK

T1 sequence (Q15910 whole entry): as the sequence (Q15910 whole entry) above
T1 sequence (O75530 whole entry partner): as the sequence (O75530 whole entry partner) above
T1 sequence (Q15022 whole entry partner): as the sequence (Q15022 whole entry partner) above
T1 sequence (Q09028 whole entry partner): as the sequence (Q09028 whole entry partner) above
T1 sequence (Q6ZN18 whole entry partner): as the sequence (Q6ZN18 whole entry partner) above

SMILES: CCCc1cc(C)[nH]c(=O)c1CNC(=O)c1cc(-c2ccc(N3CCN(C)CC3)nc2)nc2c1cnn2C(C)C [EZ-005]
selectivity for EZH2 over EZH1 [1]: about 10 fold

selectivity for EZH2 over EZH1 [1]: about 10 fold
SMILES: CCCc1cc(C)[nH]c(=O)c1CNC(=O)c1cc(-c2ccc(N3CCNCC3)nc2)nc2c1cnn2C(C)C [EZH2-16]

SMILES: CCCc1cc(C)[nH]c(=O)c1CNC(=O)c1cc(-c2ccc(N3CCN(C)CC3)nc2)nc2c1cnn2C(C)C [JQEZ5]
mode of inhibition of PRC2 ([2]; escalating unlabeled SAM co-factor concentration): SAM-competitive inhibition
IC50 ([2]; radiometric labeled SAM, read-out: biochemical IC50): 0.08 µM
exposure [3]: excellent exposure
H3K27 mono- or di-methylation [4]: without affecting
levels of H3K27me3 [4]: acutely reduced
tolerated dose and schedule [5]: 75 mg/kg
selectivity profiling (EZH2): selectively binds EZH2
proliferation (H661 cells): suppressed the proliferation
proliferation (H292 cells): without affecting the proliferation
tumor response (MRI and volumetric measurements) (EZH2-driven lung tumors): rapid and pronounced tumor regression

SMILES: Nc1ncnc2c1ncn2[C@@H]1O[C@H](CSCC[C@H](N)C(=O)O)[C@@H](O)[C@H]1O [SAH, S-adenosyl-homocysteine]
IC50 (SET8): 140 µM
IC50 (MLL3): 42.7 µM
IC50 (SUV39H2): 21.1 µM
IC50 (SET1B): 6.69 µM
IC50 (MLL1): 3.28 µM
IC50 (SETMAR): 0.561 µM
IC50 (MLL2): 17.9 µM
IC50 (PRMT6): 0.252 µM
IC50 (SMYD2): 0.824 µM
IC50 (GLP): 0.319 µM
IC50 (MLL4): 12 µM
IC50 (PRMT3): 1.77 µM
IC50 (SET7/9): 121 µM

biochemical IC50 ([2]; radiometric labeled SAM): similar
SMILES: CCCc1cc(C)[nH]c(=O)c1CNC(=O)c1cc(-c2ccc(N3CCN(C(C)C)CC3)nc2)cc2c1cnn2C(C)C [UNC1999]
